The NIST ThermoML archive (doi:10.1021/acs.jced.8b00229)

Conditions: Liquid, Vibrating tube method

C=CCCC [1-pentene]
Conditions | mass density [kg/m3]
323.19 K, 30000 kPa | 648.1
323.19 K, 35000 kPa | 653.1
323.19 K, 40000 kPa | 657.9
323.19 K, 45000 kPa | 662.4
323.19 K, 50000 kPa | 666.7
323.19 K, 55000 kPa | 670.8
323.19 K, 60000 kPa | 674.7
323.19 K, 70000 kPa | 682.2
323.19 K, 80000 kPa | 689.1
323.19 K, 90000 kPa | 695.4
323.19 K, 100000 kPa | 701.5
333.04 K, 500 kPa | 597.2
333.04 K, 1000 kPa | 598.1
333.04 K, 3000 kPa | 601.9
333.04 K, 5000 kPa | 605.6
333.04 K, 10000 kPa | 613.9
333.05 K, 15000 kPa | 621.4
333.05 K, 20000 kPa | 628.1
333.05 K, 25000 kPa | 634.3
333.05 K, 30000 kPa | 640
333.05 K, 35000 kPa | 645.3
333.05 K, 40000 kPa | 650.4
333.05 K, 45000 kPa | 655.1
333.05 K, 50000 kPa | 659.6
333.05 K, 55000 kPa | 663.9
333.05 K, 60000 kPa | 668
333.05 K, 70000 kPa | 675.8
333.05 K, 100000 kPa | 695.8
333.06 K, 80000 kPa | 683
333.06 K, 90000 kPa | 689.6
342.94 K, 500 kPa | 585.8
342.94 K, 1000 kPa | 586.8
342.94 K, 90000 kPa | 684
342.95 K, 3000 kPa | 591.2
342.95 K, 5000 kPa | 595.3
342.95 K, 10000 kPa | 604.4
342.95 K, 70000 kPa | 669.9
342.95 K, 80000 kPa | 677.2
342.95 K, 100000 kPa | 690.4
342.96 K, 15000 kPa | 612.5
342.96 K, 20000 kPa | 619.8
342.96 K, 25000 kPa | 626.3
342.96 K, 30000 kPa | 632.4
342.96 K, 35000 kPa | 638.1
342.96 K, 40000 kPa | 643.4
342.96 K, 45000 kPa | 648.4
342.96 K, 50000 kPa | 653
342.96 K, 55000 kPa | 657.5
342.96 K, 60000 kPa | 661.8
352.82 K, 500 kPa | 574.2
352.82 K, 1000 kPa | 575.6
352.82 K, 3000 kPa | 580.5
352.82 K, 5000 kPa | 585.1
352.82 K, 10000 kPa | 595.2
352.83 K, 15000 kPa | 603.9
352.83 K, 20000 kPa | 611.7
352.83 K, 25000 kPa | 618.7
352.83 K, 30000 kPa | 625.2
352.83 K, 35000 kPa | 631.2
352.83 K, 40000 kPa | 636.7
352.83 K, 45000 kPa | 641.9
352.83 K, 50000 kPa | 646.9
352.83 K, 55000 kPa | 651.5
352.83 K, 70000 kPa | 664.3
352.83 K, 80000 kPa | 671.9
352.83 K, 90000 kPa | 679
352.83 K, 100000 kPa | 685.6
352.84 K, 60000 kPa | 655.9
362.67 K, 500 kPa | 560.5
362.67 K, 1000 kPa | 561.8
362.67 K, 3000 kPa | 567.4
362.67 K, 80000 kPa | 664.9
362.67 K, 100000 kPa | 679
362.68 K, 5000 kPa | 572.6
362.68 K, 10000 kPa | 583.8
362.68 K, 15000 kPa | 593.3
362.68 K, 20000 kPa | 601.7
362.68 K, 25000 kPa | 609.2
362.68 K, 30000 kPa | 616.1
362.68 K, 35000 kPa | 622.4
362.68 K, 40000 kPa | 628.2
362.68 K, 45000 kPa | 633.7
362.68 K, 50000 kPa | 638.9
362.68 K, 55000 kPa | 643.7
362.68 K, 60000 kPa | 648.3
362.68 K, 70000 kPa | 657.1
362.68 K, 90000 kPa | 672.2
